“Also recorded” adds a separate entry of the source.
Columns and labels:
cortical neurons = test: glutamate-induced neuronal death in cultured cortical neurons; format: cell-based, rats; conditions: 300 μM glutamate for 24 hours
Description: Primary cultured cells were used as a model to evaluate the subject small molecule effect on CNS. Glutamate neurotoxicity can be most directly studied using neurons prepared from the brain at the late embryonic stage and subsequently cultured for maturation. To examine the effect of the subject small molecules (E5A24 and E5A29) on glutamate-induced neuronal death, cortical neurons isolated from embryonic day 18 rats, were cultured for 10 days. Subsequently, neurons were treated for 24 hours with or without the subject small molecules, and further exposed to 300 μM glutamate for 24 hours. After glutamate was washed out, the cells were cultured for another 24 hours. During the glutamate challenge and subsequent culture, the subject small molecules were absent. Finally, the cell viability was examined. […] Experiments were performed according to the literature (Morishita et. al., Neuroscience 76, 105, 1997).

[1] = tested on: EPO-Receptor down stream signaling pathway; test: in vitro signaling (phosphorylation of EPO-R, JAK2, STAT1, STAT3, STAT5); format: cell-based; conditions: UT-7 cells
Description: UT-7 cells were grown in Minimal Essential Medium Alpha (MEM-α) containing 20% FBS, 1.5 g/L NaHCO3, 5 ng/ml GM-CSF, and 100U Penicillin/100 μg/ml Streptomycin Sulfate (“P/S”), in T150 flasks (60 ml/flask) at 37° C., 5% CO2 to a density of no more than 5×10^5 cells/ml. The cells were starved overnight in MEM-α containing 10% FBS, 1.5 g/L NaHCO3 and P/S in T150 flasks (60 ml/flask) at a density of 5×10^5 cells/ml, in 5% CO2, 37° C. The cells were then centrifuged in a swinging-bucket rotor at 200×g for 5 minutes at room temperature. The supernatant was removed, and the cells pooled into one 50 ml conical tube. The cells were washed twice with serum-free medium (MEM-α containing 1.5 g/L NaHCO3 and P/S). After the last wash, the cells were resuspended to a density of 1×10^7 cells/ml in serum-free medium. The cells were then placed in 15 ml conical tubes in 1 ml aliquots and incubated with the caps loosened for 1 hour at 37° C., 5% CO2. Every 10 minutes, the lower portion of each tube was tapped (flicked) several times to prevent the cells from settling (please note, this step is very important!)
It was also observed that EPO-R was phosphorylated when stimulated with non-peptide EPO-R modulators. (See FIG. 4) […]

TF-1 cells = test: cell proliferation; format: cell-based; conditions: 96 hours
Description: TF-1 cells were stimulated for 96 hours with different non-peptide EPO-R modulators, and it was observed that the non-peptide EPO binding molecules stimulated cellular proliferation in dose-responsive manner and to the extent of the natural hormone.

human bone marrow cells = test: formation of erythroid colonies from human bone marrow in methylcellulose; format: cell-based
Description: (§1) Mouse or human bone marrow cells were stimulated in methylcellulose for 7 days (mouse) or 14 days (human) with non-peptide EPO-R modulators. Formation of erythroid colonies was observed. (See FIGS. 6 to 8)
(1) Dilute human bone marrow 1:1 with sterile PBS. (2) Slowly layer bone marrow into 50 ml tubes containing 20 ml of LSM Lymphocyte separation medium (ICN/Cappel—cat #50494). 50 ml bone marrow will yield 2 tubes. (3) Spin tubes at 2000 rpm for 30 minutes with brake off. (4) Slowly take out the middle layer using a 10 ml pipette and transfer into a new 50 ml tube. (5) Add PBS+0.5% BSA+5 mM EDTA to tube for washing. (6) Spin tube for 5 minutes at speed 4 with brake on. (7) Repeat wash step 2 more times. (8) After 3rd wash, resuspend pellet in SF Iscoves' MDM medium. (9) Count by diluting cells in 3% acetic acid. (10) Dilute cells to desired concentration (5×10^5 cells/ml) and seed onto methylcellulose.
(1) Tubes containing 3.0 ml of methylcellulose medium (Stemcell Technology, cat # H4230) supplemented with 50 ng/ml hSCF are prepared. (Alternatively the methylcellulose could be supplemented with 50 ng/ml hSCF, 20 ng/ml of hIL-3 and hIL-6). (2) Compounds or EPO of desired concentrations are added to the tubes. “Control” tubes or tubes that will receive EPO are supplemented with DMSO to a final concentration of 0.16%. […] Colonies are scored on day twelve.

mouse bone marrow cells = test: formation of erythroid colonies from mouse bone marrow in methylcellulose; format: cell-based
Description: as §1
Bone marrow cells were isolated from mouse femurs. Cells were washed twice with PBS and resuspended to a density of 6.5×10^6 cells/ml in media. 300 μl (6.5×10^5/ml) of cells were mixed with 1.5 ml of methylcellulose media (Stemcell Technology) to which the desired concentration of compound or the EPO was added. The mixture was poured onto 35 mm dishes; all the conditions are performed in duplicates. The incubation was for […] at 37° C., 5% CO2. The colonies were scored on day seven.
After thawing methylcellulose overnight, the next morning, 20 ml of Iscove's MDM+2%FBS is added to the bottle to achieve 100 ml total. The bottle is mixed for at least 30 seconds and settled for about 10 minutes. 10 cc syringes are used to aliquot 3 ml per minisorp tube.

TF-1 and UT-7 cells = test: biological testing in cell lines (cell proliferation and cell signaling); format: cell-based; conditions: biological testing in cell line
Description: Compounds identified in the initial screen were further tested for their biological activity in two assays: a cell proliferation assay and a cell signaling assay in TF-1 and UT-7 cells. The hit rate in cell proliferation was 0.16%; hit rate in cell signaling was 0.25%.
Compounds identified in the initial screen were further tested for their biological activity in two assays: a cell proliferation assay and a cell signaling assay in TF-1 cells. The hit rate in cell proliferation was 0.16%; hit rate in cell signaling was 0.25%.

Bcl-xl protein = test: up-regulation of Bcl-xl expression (immunoprecipitation, western blot); format: cell-based
Description: When the subject compounds were tested for anti-apoptotic effect was evaluated, these antibodies were used: Anti-Bcl-X1/s antibody (Santa Cruz Biotechnology, SC-1041), Anti-Bcl-X1 antibody (Santa Cruz Biotechnology, SC8392)
A number of molecules of the subject invention were evaluated in in vitro systems that reflect the condition of cerebral ischemia and metabolic stress. Firstly, it is known that one of the mechanisms by which EPO prevents neuronal apoptosis is by up-regulating the expression levels of Bcl-x1 protein, which is a well-described anti-apoptotic protein. Thus, cells-lines that are known to be EPO responsive (UT-7 and TF-1, used in previous studies) were used as a cellular system to examine the small molecules' anti-apoptotic activity through EPO-R.
The evaluation was performed by starving the cells, stimulating the cells with compounds at appropriate concentrations (or no stimulation for control samples) and immunoprecipitating the cell lysates with antibody specific to both forms (short and long) of Bcl-x1 protein. The amount of Bcl-x1 (long protein form, known to have anti-apoptotic activity) protein was evaluated by western blot analysis.

P-19 cells = test: cell survival of P-19 cells after withdrawal of serum; format: cell-based; conditions: P19 cells; treated 24 hours before, serum withdrawn for 48 hours
Description: Experiments were performed according to the described protocol. The anti-apoptotic effect of the subject small molecules was evaluated in P-19 cells (a neural-like embryonal carcinoma cell line) that undergo apoptosis upon withdrawal of serum. Briefly, cells were treated with small molecules for 24 hours prior to serum withdrawal. Serum was withdrawn for 48 hours in the presence or absence of a subject small molecule (EM5 and E5A24). At the end of that period, cell survival was evaluated. […] This Figure is representative of the experiment and of the subject small molecules. The experiments were performed according to literature procedures (Siren et.al., Proc. Nat. Acad. Sci. 98, 4044, 2001). Cell survival was determined according to the protocol described for cellular proliferation.

For `Cc1n[nH]c2c1C(c1ccco1)C1=C(CC(C)(C)CC1=O)N2` (centres unmarked) [Cmpnd E5A29], the “cell survival of cortical neurons after glutamate challenge” value (cortical neurons) was “prevented glutamate induced neuronal death in a dose-responsive manner; also recorded: increased cell survival” and the “increase of cell survival” value (cortical neurons; cortical neurons) was 60%.
In the case of `Cc1ccc(Cl)cc1Nc1nc2nc(C)c(NCC3CC3)cn2n1` [Cmpnd E5], the “activation of EPO-R” value [1] is reported as “activation of EPO-R”, the cellular proliferation (TF-1 cells) is reported as “proliferative effect” and the “erythroid colony formation (CFU-e)” value (human bone marrow cells) is reported as “stimulate CFU-e formation to the same extent as EPO”. The “erythroid colony formation (CFU-e)” value (mouse bone marrow cells) was “stimulate CFU-e formation to the same extent as EPO” and the “maximum activity compared to EPO natural hormone” value (TF-1 and UT-7 cells) was “maximum activity comparable to that of the maximum activity of EPO”.
For `Cn1ncc(S(=O)Oc2ccccc2)c(Cl)c1=O` (centres unmarked) [Cmpnd E6], the “erythroid colony formation (CFU-e)” value (human bone marrow cells) was “stimulate CFU-e formation to the same extent as EPO”, the “erythroid colony formation (CFU-e)” value (mouse bone marrow cells) was “stimulate CFU-e formation to the same extent as EPO” and the “maximum activity compared to EPO natural hormone” value (TF-1 and UT-7 cells) was “maximum activity comparable to that of the maximum activity of EPO”.
For `Cc1cc(NCC2CC2)n2nc(Nc3cc(Cl)ccc3C)nc2n1` [EM5], the Bcl-xl expression (Bcl-xl protein; TF-1 cells) was “up-regulation of Bcl-xl expression”, the Bcl-xl expression (Bcl-xl protein; UT-7 cells) was “up-regulation of Bcl-xl expression” and the Bcl-x1 protein up-regulation (Bcl-xl protein; both cell lines (UT-7 and TF-1)) was “induced up-regulation of Bcl-x1 protein in a dose-responsive manner”. The “cell viability / protection from apoptosis after withdrawal of serum” value (P-19 cells) was “protect cells from apoptosis; also recorded: increased cell viability”.
